In US20140357655A1, “SPIROINDOLINE DERIVATIVES AS GONADOTROPIN- RELEASING HORMONE RECEPTOR ANTAGONISTS” (Bayer Intellectual Property GmbH, priority 2012, published 2014):

Biological target: T1, human GnRH receptor (Homo sapiens, UniProt P30968)
T1 sequence (P30968 1-328): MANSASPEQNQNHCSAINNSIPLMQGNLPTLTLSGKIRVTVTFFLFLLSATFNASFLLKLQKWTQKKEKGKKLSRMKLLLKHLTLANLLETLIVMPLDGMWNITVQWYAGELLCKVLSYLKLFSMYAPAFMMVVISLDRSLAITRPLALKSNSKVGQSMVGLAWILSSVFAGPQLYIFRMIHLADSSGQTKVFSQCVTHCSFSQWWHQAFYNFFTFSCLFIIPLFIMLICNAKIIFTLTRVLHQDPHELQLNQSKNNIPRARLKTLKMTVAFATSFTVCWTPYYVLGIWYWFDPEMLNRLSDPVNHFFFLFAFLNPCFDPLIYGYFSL
Assay: IP-One HTRF assay with buserelin (at EC80) stimulation
Assay type: cell-based
Conditions: CHO cells stably expressing human GnRH receptor, read-out: Potency in IP-One HTRF assay, given as IC50
Outline: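 Ten-point duplicate titrations (20 μM to 1 nM) were fitted by 4-parameter model to normalized 665/620 nm HTRF ratios, 0% = no compound, 100% = no agonist. Assay measured IP1 accumulation in human GnRH-R CHO cells stimulated 1 h at 37° C with EC80 buserelin, then lysed 1 h at 22° C.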

Q: Which IC50 does the source give for `COc1cccc(S(=O)(=O)N2c3ccc(C(=O)Nc4cccc(S(=O)(=O)N=C(N(C)C)N(C)C)c4)cc3C3(CCS(=O)(=O)CC3)C2C2CC2)c1` (single isomer, unassigned) [Example 62.2, N-(3-{[bis(dimethylamino)methylidene]sulfamoyl}phenyl)-2-cyclopropyl-1-[(3-methoxyphenyl)sulfonyl]-1,2,2′,3′,5′,6′-hexahydrospiro[indole-3,4′-thiopyran]-5-carboxamide 1′,1′-dioxide] here?
A: 4.8 nM

Q: For `O=C(NCc1ccccc1Cl)c1ccc2c(c1)C1(CCS(=O)(=O)CC1)C(C1CC1)N2S(=O)(=O)c1ccc(F)cc1` (single isomer, unassigned) [Example 18.2, N-(2-chlorobenzyl)-2-cyclopropyl-1-[(4-fluorophenyl)sulfonyl]-1,2,2′,3′,5′,6′-hexahydrospiro[indole-3,4′-thiopyran]-5-carboxamide 1′,1′-dioxide], which IC50 is on record?
A: 5240 nM

Q: For `O=C(NCc1ncc(F)cc1Cl)c1ccc2c(c1)C1(CCS(=O)(=O)CC1)C(C1CC1)N2S(=O)(=O)c1ccc(F)cc1` (stereo not shown) [Example 17, N-[(3-chloro-5-fluoropyridin-2-yl)methyl]-2-cyclopropyl-1-[(4-fluorophenyl)sulfonyl]-1,2,2′,3′,5′,6′-hexahydrospiro[indole-3,4′-thiopyran]-5-carboxamide 1′,1′-dioxide], which IC50 is on record?
A: 184 nM

Q: For `CC1N(S(=O)(=O)c2ccc(F)cc2)c2ccc(C(=O)NCc3ccccc3Cl)cc2C12CCOCC2` (single isomer, unassigned) [Example 2.1, N-(2-chlorobenzyl)-1-[(4-fluorophenyl)sulfonyl]-2-methyl-1,2,2′,3′,5′,6′-hexahydrospiro[indole-3,4′-pyran]-5-carboxamide], which IC50 is on record?
A: 9320 nM

Q: `CN(C)S(=O)(=O)c1cccc(NC(=O)c2ccc3c(c2)C2(CCS(=O)(=O)CC2)C(C2CC2)N3S(=O)(=O)c2ccc(F)cc2)c1` (single isomer, unassigned) [Example 37.1, 2-cyclopropyl-N-[3-(N,N-dimethylsulfamoyl)phenyl]-1-[(4-fluorophenyl)sulfonyl]-1,2,2′,3′,5′,6′-hexahydrospiro[indole-3,4′-thiopyran]-5-carboxamide 1′,1′-dioxide] was tested. Which IC50 did it give?
A: 2130 nM

Q: With `O=C(NCc1ccccc1C(F)(F)F)c1ccc2c(c1)C1(CCS(=O)(=O)CC1)C(C1CC1)N2S(=O)(=O)c1ccc(F)cc1` (stereo not shown) [Example 32, 2-cyclopropyl-1-[(4-fluorophenyl)sulfonyl]-N-[2-(trifluoromethyl)benzyl]-1,2,2′,3′,5′,6′-hexahydrospiro[indole-3,4′-thiopyran]-5-carboxamide 1′,1′-dioxide] as the compound, how does the IC50 read?
A: 58 nM

Q: For `Cc1cccnc1CNC(=O)c1ccc2c(c1)C1(CCS(=O)(=O)CC1)C(C1CC1)N2S(=O)(=O)c1ccc(F)cc1` (stereo not shown) [Example 31, 2-cyclopropyl-1-[(4-fluorophenyl)sulfonyl]-N-[(3-methylpyridin-2-yl)methyl]-1,2,2′,3′,5′,6′-hexahydrospiro[indole-3,4′-thiopyran]-5-carboxamide 1′,1′-dioxide], which IC50 is on record?
A: 503 nM

Q: For `COc1cccc(S(=O)(=O)N2c3ccc(C(=O)Nc4cccc(S(N)(=O)=O)c4)cc3C3(CCS(=O)(=O)CC3)C2C2CC2)c1` (single isomer, unassigned) [Example 42.2, 2-cyclopropyl-1-[(3-methoxyphenyl)sulfonyl]-N-(3-sulfamoylphenyl)-1,2,2′,3′,5′,6′-hexahydrospiro[indole-3,4′-thiopyran]-5-carboxamide 1′,1′-dioxide], which IC50 is on record?
A: 99 nM

Q: How did the IC50 turn out when `O=C(NCc1ccccc1Cl)c1ccc2c(c1)C1(CCS(=O)(=O)CC1)C(C1CC1)N2S(=O)(=O)c1cccc(OC(F)F)c1` (stereo not shown) [Example 86, N-(2-chlorobenzyl)-2-cyclopropyl-1-{[3-(difluoromethoxy)phenyl]sulfonyl}-1,2,2′,3′,5′,6′-hexahydrospiro[indole-3,4′-thiopyran]-5-carboxamide 1′,1′-dioxide] was run?
A: 196 nM

Q: `O=C(NCC1CCCC1)c1ccc2c(c1)C1(CCS(=O)(=O)CC1)C(C1CC1)N2S(=O)(=O)c1ccc(F)cc1` (single isomer, unassigned) [Example 38.1, N-(cyclopentylmethyl)-2-cyclopropyl-1-[(4-fluorophenyl)sulfonyl]-1,2,2′,3′,5′,6′-hexahydrospiro[indole-3,4′-thiopyran]-5-carboxamide 1′,1′-dioxide] was tested. Which IC50 did it give?
A: 88 nM

Q: `N#Cc1ccc(S(=O)(=O)N2c3ccc(C(=O)Nc4cncc(Cl)c4)cc3C3(CCS(=O)(=O)CC3)C2C2CC2)cc1` (stereo not shown) [Example 71, N-(5-chloropyridin-3-yl)-1-[(4-cyanophenyl)sulfonyl]-2-cyclopropyl-1,2,2′,3′,5′,6′-hexahydrospiro[indole-3,4′-thiopyran]-5-carboxamide 1′,1′-dioxide] was tested. Which IC50 did it give?
A: 52 nM

Q: With `O=C(O)c1cccc(S(=O)(=O)N2c3ccc(C(=O)NCc4ccccc4Cl)cc3C3(CCS(=O)(=O)CC3)C2C2CC2)c1` (single isomer, unassigned) [Example 61.1, 3-({5-[(2-chlorobenzyl)carbamoyl]-2-cyclopropyl-1′,1′-dioxido-2′,3′,5′,6′-tetrahydrospiro[indole-3,4′-thiopyran]-1(2H)-yl}sulfonyl)benzoic acid] as the compound, how does the IC50 read?
A: 84 nM

Q: For `COC(=O)c1cccc(NC(=O)c2ccc3c(c2)C2(CCS(=O)(=O)CC2)C(C2CC2)N3S(=O)(=O)c2ccc(F)cc2)c1` (single isomer, unassigned) [Example 34.2, methyl 3-[({2-cyclopropyl-1-[(4-fluorophenyl)sulfonyl]-1′,1′-dioxido-1,2,2′,3′,5′,6′-hexahydrospiro[indole-3,4′-thiopyran]-5-yl}carbonyl)amino]benzoate], which IC50 is on record?
A: 825 nM

Q: `O=C(NCc1ccc(F)cc1Cl)c1ccc2c(c1)C1(CCS(=O)(=O)CC1)C(C1CC1)N2S(=O)(=O)c1ccc(F)cc1` (single isomer, unassigned) [Example 16.1, N-(2-chloro-4-fluorobenzyl)-2-cyclopropyl-1-[(4-fluorophenyl)sulfonyl]-1,2,2′,3′,5′,6′-hexahydrospiro[indole-3,4′-thiopyran]-5-carboxamide 1′,1′-dioxide] was tested. Which IC50 did it give?
A: 62 nM

Q: For `N#Cc1cccc(S(=O)(=O)N2c3ccc(C(=O)NCc4ncccc4C(F)(F)F)cc3C3(CCS(=O)(=O)CC3)C2C2CC2)c1` (single isomer, unassigned) [Example 79.1, 1-[(3-cyanophenyl)sulfonyl]-2-cyclopropyl-N-{[3-(trifluoromethyl)pyridin-2-yl]methyl}-1,2,2′,3′,5′,6′-hexahydrospiro[indole-3,4′-thiopyran]-5-carboxamide 1′,1′-dioxide], which IC50 is on record?
A: 54 nM

Q: With `N#Cc1cccc(S(=O)(=O)N2c3ccc(C(=O)Nc4ccon4)cc3C3(CCS(=O)(=O)CC3)C2C2CC2)c1` (single isomer, unassigned) [Example 80.1, 1-[(3-cyanophenyl)sulfonyl]-2-cyclopropyl-N-(1,2-oxazol-3-yl)-1,2,2′,3′,5′,6′-hexahydrospiro[indole-3,4′-thiopyran]-5-carboxamide 1′,1′-dioxide] as the compound, how does the IC50 read?
A: 315 nM

Q: With `N#Cc1cccc(S(=O)(=O)N2c3ccc(C(=O)NCc4ccccc4Cl)cc3C3(CCS(=O)(=O)CC3)C2C2CC2)c1` (single isomer, unassigned) [Example 76.1, N-(2-chlorobenzyl)-1-[(3-cyanophenyl)sulfonyl]-2-cyclopropyl-1,2,2′,3′,5′,6′-hexahydrospiro[indole-3,4′-thiopyran]-5-carboxamide 1′,1′-dioxide] as the compound, how does the IC50 read?
A: 21 nM

Q: Which IC50 does the source give for `N#Cc1ccc(S(=O)(=O)N2c3ccc(C(=O)NCc4ccccc4C(F)(F)F)cc3C3(CCS(=O)(=O)CC3)C2C2CC2)cc1` (single isomer, unassigned) [Example 72.1, 1-[(4-cyanophenyl)sulfonyl]-2-cyclopropyl-N-[2-(trifluoromethyl)benzyl]-1,2,2′,3′,5′,6′-hexahydrospiro[indole-3,4′-thiopyran]-5-carboxamide 1′,1′-dioxide] here?
A: 11 nM

Q: For `COc1cccc(S(=O)(=O)N2c3ccc(C(=O)Nc4cccc(S(=O)(=O)N(C)C)c4)cc3C3(CCS(=O)(=O)CC3)C2C2CC2)c1` (single isomer, unassigned) [Example 43.1, 2-cyclopropyl-N-[3-(N,N-dimethylsulfamoyl)phenyl]-1-[(3-methoxyphenyl)sulfonyl]-1,2,2′,3′,5′,6′-hexahydrospiro[indole-3,4′-thiopyran]-5-carboxamide 1′,1′-dioxide], which IC50 is on record?
A: 344 nM

Q: How did the IC50 turn out when `CC1N(S(=O)(=O)c2ccc(F)cc2)c2ccc(C(=O)NC(C)(C)c3ccc(F)cc3Cl)cc2C12CCS(=O)(=O)CC2` (stereo not drawn) [Example 27, N-(2-chloro-4-fluoro-α,α-dimethylbenzyl)-1-[(4-fluorophenyl)sulfonyl]-2-methyl-1,2,2′,3′,5′,6′-hexahydrospiro[indole-3,4′-thiopyran]-5-carboxamide 1′,1′-dioxide] was run?
A: 9020 nM

Q: How did the IC50 turn out when `COc1cccc(S(=O)(=O)N2c3ccc(C(=O)NCc4ncccc4C(F)(F)F)cc3C3(CCS(=O)(=O)CC3)C2C2CC2)c1` (single isomer, unassigned) [Example 39.2, 2-cyclopropyl-1-[(3-methoxyphenyl)sulfonyl]-N-{[3-(trifluoromethyl)pyridin-2-yl]methyl}-1,2,2′,3′,5′,6′-hexahydrospiro[indole-3,4′-thiopyran]-5-carboxamide 1′,1′-dioxide] was run?
A: 565 nM

Q: Which IC50 does the source give for `N#Cc1cccc(S(=O)(=O)N2c3ccc(C(=O)Nc4cncc(Cl)c4)cc3C3(CCS(=O)(=O)CC3)C2C2CC2)c1` (stereo not shown) [Example 77, N-(5-chloropyridin-3-yl)-1-[(3-cyanophenyl)sulfonyl]-2-cyclopropyl-1,2,2′,3′,5′,6′-hexahydrospiro[indole-3,4′-thiopyran]-5-carboxamide 1′,1′-dioxide] here?
A: 700 nM
